Measured values published in the CheMixHub ionic liquid set.
± gives the uncertainty stated by the source.

Experiment: xn = mol fraction of the nth substance listed

COS(=O)(=O)[O-].Cn1cc[n+](C)c1 + CCOCCO
viscosity [mPa·s], 101 kPa
Conditions	x1 = 0.0009004	x1 = 0.002248	x1 = 0.003592	x1 = 0.004932	x1 = 0.006269	x1 = 0.007602
293.15 K	2.1 ± 0.026	2.12 ± 0.027	2.14 ± 0.026	2.16 ± 0.027	2.18 ± 0.026	2.21 ± 0.026
303.15 K	1.64 ± 0.024	1.66 ± 0.024	1.68 ± 0.024	1.71 ± 0.024	1.73 ± 0.024	1.75 ± 0.024
313.15 K	1.27 ± 0.023	1.29 ± 0.023	1.32 ± 0.023	1.34 ± 0.023	1.37 ± 0.023	1.39 ± 0.023

C[N+](C)(CCCS(=O)(=O)O)C1CCCCC1.Cc1ccc(S(=O)(=O)[O-])cc1 + CO
viscosity [mPa·s], 101 kPa
Conditions	303.15 K	308.15 K	313.15 K	318.15 K	323.15 K	328.15 K
x1 = 0.01863	0.9656	0.8903	0.8173	0.7622	0.7053	0.6527
x1 = 0.04828	2.131	1.956	1.779	1.61	1.487	1.37
x1 = 0.1023	7.675	6.646	5.931	5.247	4.648	4.072
x1 = 0.2332	82.39	66.75	52.34	42.16	34.08	28.69
x1 = 1	113700	56930	32650	17830	10190	6293

CS(C)=O + CC[n+]1ccn(C)c1.COS(=O)(=O)[O-]
100 kPa, x2 = 0
Conditions	viscosity [mPa·s]
298.15 K	1.99 ± 0.04
303.15 K	1.8 ± 0.04
308.15 K	1.65 ± 0.04
313.15 K	1.54 ± 0.03

CC(C)C[C@H](NC(=O)CN)C(=O)O + CCCCCCCCCCCC[N+](C)(C)Cc1ccccc1.[Cl-] + O
electrical conductivity [S/m], 101 kPa
Conditions	293.15 K	298.15 K	303.15 K	308.15 K	313.15 K
x1 = 0.0009002, x2 = 0	0.00295 ± 0.00018	0.00335 ± 0.0002	0.0038 ± 0.00023	0.00435 ± 0.00027	0.00495 ± 0.0003
x1 = 0.001793, x2 = 0	0.00449 ± 0.00028	0.00524 ± 0.00032	0.00608 ± 0.00038	0.00702 ± 0.00044	0.00811 ± 0.0005

CCCC[n+]1ccn(C)c1.[Br-] + C[NH2+]CCC=C1c2ccccc2CCc2ccccc21.[Cl-] + O
viscosity [mPa·s], 100 kPa
Conditions	288.15 K	298.15 K	308.15 K	318.15 K
x2 = 0, x1 = 0.0001802	1.149 ± 0.044	0.916 ± 0.043	0.751 ± 0.043	0.634 ± 0.042
x2 = 0, x1 = 0.0007203	1.153 ± 0.044	–	–	0.64 ± 0.042
x2 = 0, x1 = 0.00126	1.159 ± 0.044	0.93 ± 0.043	0.763 ± 0.043	0.646 ± 0.042

CCCC[n+]1ccn(C)c1.[Br-] + NC(N)=NCCC[C@H](N)C(=O)O + O
Conditions	viscosity [mPa·s]
313.15 K, 101.3 kPa, x2 = 0, x1 = 0.0007203	0.674 ± 0.009

CC[n+]1ccn(C)c1.[Cl-] + O=C[C@H](O)[C@@H](O)[C@H](O)[C@H](O)CO
373 K, 100 kPa
Conditions	viscosity [mPa·s]
x2 = 0	36 ± 14
x2 = 0.0419	66 ± 26

COS(=O)(=O)[O-].Cn1cc[n+](C)c1 + CCO
Conditions	viscosity [mPa·s]
328.15 K, 100 kPa, x2 = 0.945	0.96 ± 0.4
